Consider 38 compounds from US12448392B2, “Spiropiperidine derivatives” (89BIO LTD, priority 2016, dated 2025).

Structures are written as SMILES.

T1 sequence (P49327 whole entry): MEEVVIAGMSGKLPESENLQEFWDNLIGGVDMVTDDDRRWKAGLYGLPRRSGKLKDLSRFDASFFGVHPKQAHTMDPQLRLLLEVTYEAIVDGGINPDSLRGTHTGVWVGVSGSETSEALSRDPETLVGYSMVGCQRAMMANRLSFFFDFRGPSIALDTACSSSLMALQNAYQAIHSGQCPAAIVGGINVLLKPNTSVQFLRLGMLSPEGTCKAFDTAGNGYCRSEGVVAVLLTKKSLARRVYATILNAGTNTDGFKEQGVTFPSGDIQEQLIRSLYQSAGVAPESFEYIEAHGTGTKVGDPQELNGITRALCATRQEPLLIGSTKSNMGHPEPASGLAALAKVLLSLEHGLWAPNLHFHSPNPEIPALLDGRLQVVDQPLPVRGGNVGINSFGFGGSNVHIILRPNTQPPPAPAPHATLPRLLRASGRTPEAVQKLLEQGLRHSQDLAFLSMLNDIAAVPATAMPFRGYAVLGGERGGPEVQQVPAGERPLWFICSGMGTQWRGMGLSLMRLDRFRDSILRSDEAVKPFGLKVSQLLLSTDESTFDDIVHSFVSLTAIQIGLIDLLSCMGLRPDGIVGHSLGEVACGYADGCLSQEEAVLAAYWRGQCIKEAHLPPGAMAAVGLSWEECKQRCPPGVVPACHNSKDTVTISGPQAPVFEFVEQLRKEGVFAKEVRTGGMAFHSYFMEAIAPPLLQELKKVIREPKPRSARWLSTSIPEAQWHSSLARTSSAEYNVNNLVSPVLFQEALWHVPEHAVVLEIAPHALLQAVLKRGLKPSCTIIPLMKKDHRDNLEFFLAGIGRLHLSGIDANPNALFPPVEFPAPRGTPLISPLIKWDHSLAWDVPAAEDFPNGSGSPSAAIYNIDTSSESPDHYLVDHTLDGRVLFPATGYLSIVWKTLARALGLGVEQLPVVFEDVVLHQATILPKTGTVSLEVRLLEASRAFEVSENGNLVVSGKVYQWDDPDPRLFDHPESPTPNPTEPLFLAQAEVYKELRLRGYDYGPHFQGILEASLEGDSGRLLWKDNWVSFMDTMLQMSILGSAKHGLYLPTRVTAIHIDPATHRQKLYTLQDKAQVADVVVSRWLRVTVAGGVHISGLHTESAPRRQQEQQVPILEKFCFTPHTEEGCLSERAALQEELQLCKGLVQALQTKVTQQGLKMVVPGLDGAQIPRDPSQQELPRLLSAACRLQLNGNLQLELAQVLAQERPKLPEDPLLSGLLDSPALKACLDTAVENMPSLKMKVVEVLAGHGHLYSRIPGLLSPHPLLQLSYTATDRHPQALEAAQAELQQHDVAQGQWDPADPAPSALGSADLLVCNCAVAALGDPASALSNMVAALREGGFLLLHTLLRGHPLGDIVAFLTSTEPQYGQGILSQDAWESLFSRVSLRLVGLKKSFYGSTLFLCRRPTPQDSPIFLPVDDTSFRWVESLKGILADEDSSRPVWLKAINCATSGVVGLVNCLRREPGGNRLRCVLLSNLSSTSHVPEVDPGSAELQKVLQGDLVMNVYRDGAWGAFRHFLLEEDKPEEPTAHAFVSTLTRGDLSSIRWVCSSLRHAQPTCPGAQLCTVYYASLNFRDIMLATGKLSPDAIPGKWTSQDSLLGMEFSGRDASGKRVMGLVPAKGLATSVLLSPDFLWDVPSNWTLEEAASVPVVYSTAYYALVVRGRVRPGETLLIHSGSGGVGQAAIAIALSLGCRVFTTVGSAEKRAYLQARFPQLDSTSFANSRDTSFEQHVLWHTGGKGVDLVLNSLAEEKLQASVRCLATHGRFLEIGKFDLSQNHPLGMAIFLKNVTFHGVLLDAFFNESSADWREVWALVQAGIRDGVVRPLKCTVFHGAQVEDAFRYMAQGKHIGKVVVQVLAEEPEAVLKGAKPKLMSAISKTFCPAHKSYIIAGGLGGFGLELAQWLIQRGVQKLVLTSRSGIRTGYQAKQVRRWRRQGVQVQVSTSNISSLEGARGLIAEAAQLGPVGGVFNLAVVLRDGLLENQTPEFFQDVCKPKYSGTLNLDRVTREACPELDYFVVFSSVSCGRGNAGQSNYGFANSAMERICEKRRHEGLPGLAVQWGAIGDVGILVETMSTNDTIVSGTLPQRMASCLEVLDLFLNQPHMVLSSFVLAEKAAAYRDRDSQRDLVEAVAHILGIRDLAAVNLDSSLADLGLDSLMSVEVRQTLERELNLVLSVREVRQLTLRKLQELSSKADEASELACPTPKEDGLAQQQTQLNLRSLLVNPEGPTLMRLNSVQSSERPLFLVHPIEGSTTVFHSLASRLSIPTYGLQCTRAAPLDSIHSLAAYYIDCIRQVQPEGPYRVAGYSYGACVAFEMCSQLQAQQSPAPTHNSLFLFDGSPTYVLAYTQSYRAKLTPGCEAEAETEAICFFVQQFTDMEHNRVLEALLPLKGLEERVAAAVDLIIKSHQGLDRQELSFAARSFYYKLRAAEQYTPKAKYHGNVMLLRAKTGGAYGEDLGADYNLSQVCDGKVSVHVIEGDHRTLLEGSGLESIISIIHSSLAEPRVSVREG

One test concerns the target T1, recombinant human baculovirus-expressed GST-tagged FASN (Homo sapiens, UniProt P49327).
T1 construct: GST
Nature of the test: biochemical.
Settings: not given
Turning to `O=C([C@H]1CCCO1)N1CCC2(CC1)OCc1cc(-c3cnc4ccccc4c3)ccc1O2` [Example 48, [6-(3-Quinolyl)spiro[4H-1,3-benzodioxine-2,4′-piperidine]-1′-yl]-[(2R)-tetrahydrofuran-2-yl]methanone], the IC50 fell in the range of 0.001 to 0.099 µM. Same read-out and setting: then `COc1c(-c2ccc3c(c2)COC2(CCN(C(=O)C4CC4)CC2)O3)ccc2cccnc12` [Example 49, Cyclopropyl-[6-(8-methoxy-7-quinolyl)spiro[4H-1,3-benzodioxine-2,4′-piperidine]-1′-yl]methanone], with 0.001 to 0.099 µM.

As to `Cc1c(-c2ccc3c(c2)COC2(CCN(C(=O)[C@H]4CCCO4)CC2)O3)ccc2cccnc12` [Example 50, [6-(8-Methyl-7-quinolyl)spiro[4H-1,3-benzodioxine-2,4′-piperidine]-1′-yl]-[(2R)-tetrahydrofuran-2-yl]methanone], the IC50 was 0.001 to 0.099 µM. The same measure, in the same setting: as for `Cc1c(-c2ccc3c(c2)COC2(CCN(C(=O)[C@H]4CCCO4)CC2)O3)cnc2ccccc12` [Example 51], the figure is 0.001 to 0.099 µM; as for `CCC(=O)N1CCC2(CC1)OCc1cc(-c3cnc4ccccc4c3C)ccc1O2` [Example 52, 1-[6-(4-Methyl-3-quinolyl)spiro[4H-1,3-benzodioxine-2,4′-piperidine]-1′-yl]propan-1-one], 0.001 to 0.099 µM; as for `CCC(=O)N1CCC2(CC1)OCc1cc(-c3ccc4cccnc4c3C)ccc1O2` [Example 53, 1-[6-(8-Methyl-7-quinolyl)spiro[4H-1,3-benzodioxine-2,4′-piperidine]-1′-yl]propan-1-one], 0.001 to 0.099 µM. Still for that read-out and setting: as for `Cc1c(-c2ccc3c(c2)COC2(CCN(C(=O)C4CC4)CC2)O3)ccc2cccnc12` [Example 54, Cyclopropyl-[6-(8-methyl-7-quinolyl)spiro[4H-1,3-benzodioxine-2,4′-piperidine]-1′-yl]methanone], the figure is 0.001 to 0.099 µM; as for `CCC(=O)N1CCC2(CC1)OCc1cc(-c3ccc4cccnc4c3OC)ccc1O2` [Example 55, 1-[6-(8-Methoxy-7-quinolyl)spiro[4H-1,3-benzodioxine-2,4′-piperidine]-1′-yl]propan-1-one], 0.001 to 0.099 µM. The same measure, in the same setting: as for `COc1c(-c2ccc3c(c2)COC2(CCN(C(=O)[C@H]4CCCO4)CC2)O3)ccc2cccnc12` [Example 56, [6-(8-Methoxy-7-quinolyl)spiro[4H-1,3-benzodioxine-2,4′-piperidine]-1′-yl]-[(2R)-tetrahydrofuran-2-yl]methanone], the figure is 0.001 to 0.099 µM.

With `CCC(=O)N1CCC2(CC1)OCc1cc(-c3ccc4cccnc4c3Cl)ccc1O2` [Example 57, 1-[6-(8-Chloro-7-quinolyl)spiro[4H-1,3-benzodioxine-2,4′-piperidine]-1′-yl]propan-1-one], the IC50 lay in the range of 0.001 to 0.099 µM. Still for that read-out and setting: as for `O=C(C1CC1)N1CCC2(CC1)OCc1cc(-c3ccc4cccnc4c3Cl)ccc1O2` [Example 58, [6-(8-Chloro-7-quinolyl)spiro[4H-1,3-benzodioxine-2,4′-piperidine]-1′-yl]-cyclopropyl-methanone], the figure is 0.001 to 0.099 µM; as for `O=C([C@H]1CCCO1)N1CCC2(CC1)OCc1cc(-c3ccc4cccnc4c3Cl)ccc1O2` [Example 59, [6-(8-Chloro-7-quinolyl)spiro[4H-1,3-benzodioxine-2,4′-piperidine]-1′-yl]-[(2R)-tetrahydrofuran-2-yl]methanone], 0.001 to 0.099 µM; as for `CC(=O)OCC(=O)N1CCC2(CC1)OCc1cc(-c3ccc4cccnc4c3C)ccc1O2` [Example 60, [2-[6-(8-methyl-7-quinolyl)spiro[4H-1,3-benzodioxine-2,4′-piperidine]-1′-yl]-2-oxo-ethyl]acetate], 0.1 to 0.999 µM. The same measure, in the same setting: then `Cc1c(-c2ccc3c(c2)COC2(CCN(C(=O)CO)CC2)O3)ccc2cccnc12` [Example 62, 2-Hydroxy-1-[6-(8-methyl-7-quinolyl)spiro[4H-1,3-benzodioxine-2,4′-piperidine]-1′-yl]ethanone], with 0.1 to 0.999 µM; and `Cc1c(-c2ccc3c(c2)CCOC2(CCN(C(N)=O)CC2)O3)ccc2cccnc12` [Example 77, 7-(8-methyl-7-quinolyl)spiro[4,5-dihydro-1,3-benzodioxepine-2,4′-piperidine]-1′-carboxamide], with 0.1 to 0.999 µM. Consider `CCNC(=O)N1CCC2(CC1)OCCc1cc(-c3ccc4cccnc4c3C)ccc1O2` [Example 78, N-Ethyl-7-(8-methyl-7-quinolyl)spiro[4,5-dihydro-1,3-benzodioxepine-2,4′-piperidine]-1′-carboxamide], for which the IC50 lay in the range of 0.1 to 0.999 µM. As to `CCONC(=O)N1CCC2(CC1)OCCc1cc(-c3ccc4cccnc4c3C)ccc1O2` [Example 79, N-Ethoxy-7-(8-methyl-7-quinolyl)spiro[4,5-dihydro-1,3-benzodioxepine-2,4′-piperidine]-1′-carboxamide], the 50% inhibitory concentration (IC50) lay in the range of 0.001 to 0.099 µM. Same read-out and setting: as for `CONC(=O)N1CCC2(CC1)OCCc1cc(-c3ccc4cccnc4c3C)ccc1O2` [Example 80, N-Methoxy-7-(8-methyl-7-quinolyl)spiro[4,5-dihydro-1,3-benzodioxepine-2,4′-piperidine]-1′-carboxamide], the figure is 0.001 to 0.099 µM.

The test is the same for the next values; noted with them: 5 nM FASN, 150 μM NADPH, 10 μM acetyl-CoA, 25 μM malonyl-CoA, 90 minutes incubation; read-out: IC50 data for Compounds of Formula I, Activity.
In the case of `CCC(=O)N1CCC2(C=Cc3cc(-c4cnc5ccccc5c4)ccc3O2)CC1` [Example 43, 1-[6-(3-Quinolyl)spiro[chromene-2,4′-piperidine]-1′-yl]propan-1-one], the IC50 was 0.001 to 0.099 µM. Same read-out and setting: then `O=C(C1CC1)N1CCC2(C=Cc3cc(-c4cnc5ccccc5c4)ccc3O2)CC1` [Example 44, Cyclopropyl-[6-(3-quinolyl)spiro[chromene-2,4′-piperidine]-1′-yl]methanone], with 0.001 to 0.099 µM. For the compound `O=C(C1CCC1)N1CCC2(C=Cc3cc(-c4cnc5ccccc5c4)ccc3O2)CC1` [Example 45, Cyclobutyl-[6-(3-quinolyl)spiro[chromene-2,4′-piperidine]-1′-yl]methanone], the IC50 was in the range of 0.001 to 0.099 µM.

Consider `O=C(C1CC1)N1CCC2(CC1)CC(O)c1cc(-c3cnc4ccccc4c3)ccc1O2` (centres unmarked) [Example 46, Cyclopropyl-[4-hydroxy-6-(3-quinolyl)spiro[chromane-2,4′-piperidine]-1′-yl]methanone], for which the IC50 is 0.1 to 0.999 µM. The same measure, in the same setting: then `CCC(=O)N1CCC2(CCc3cc(-c4cnc5ccccc5c4)ccc3O2)CC1` [Example 47, 1-[6-(3-Quinolyl)spiro[chromane-2,4′-piperidine]-1′-yl]propan-1-one], with 0.001 to 0.099 µM; and `Cc1c(-c2ccc3c(c2)CCC2(CCN(C(=O)CO)CC2)O3)ccc2cccnc12` [Example 61, 2-Hydroxy-1-[6-(8-methyl-7-quinolyl)spiro[chromane-2,4′-piperidine]-1′-yl]-ethanone], with 0.1 to 0.999 µM; and `NC(=O)N1CCC2(CCc3cc(-c4ccc5cccnc5c4Cl)ccc3O2)CC1` [Example 63, 6-(8-Chloro-7-quinolyl)spiro[chromane-2,4′-piperidine]-1′-carboxamide], with 0.001 to 0.099 µM. Turning to `CC(=O)OCC(=O)N1CCC2(CCc3cc(-c4ccc5cccnc5c4Cl)ccc3O2)CC1` [Example 64, [2-[6-(8-chloro-7-quinolyl)spiro[chromane-2,4′-piperidine]-1′-yl]-2-oxo-ethyl]acetate], the IC50 was 0.1 to 0.999 µM.

`O=C(NOC1CCCCO1)N1CCC2(CCc3cc(-c4ccc5cccnc5c4Cl)ccc3O2)CC1` (centres unmarked) [Example 65, 6-(8-Chloro-7-quinolyl)-N-tetrahydropyran-2-yloxy-spiro[chromane-2,4′-piperidine]-1′-carboxamide]: the IC50 is 0.001 to 0.099 µM. Consider `CCNC(=O)N1CCC2(CCc3cc(-c4ccc5cccnc5c4Cl)ccc3O2)CC1` [Example 66, 6-(8-chloro-7-quinolyl)-N-ethyl-spiro[chromane-2,4′-piperidine]-1′-carboxamide], for which the IC50 fell in the range of 0.001 to 0.099 µM.

As to `O=C(CO)N1CCC2(CCc3cc(-c4ccc5cccnc5c4Cl)ccc3O2)CC1` [Example 67, 1-[6-(8-chloro-7-quinolyl)spiro[chromane-2,4′-piperidine]-1′-yl]-2-hydroxy-ethanone], the IC50 was 1 to 10 µM. For the compound `O=C(NO)N1CCC2(CCc3cc(-c4ccc5cccnc5c4Cl)ccc3O2)CC1` [Example 68, 6-(8-Chloro-7-quinolyl)spiro[chromane-2,4′-piperidine]-1′-carbohydroxamic acid], the IC50 lay in the range of 0.1 to 0.999 µM. Same read-out and setting: then `CCONC(=O)N1CCC2(CCc3cc(-c4ccc5cccnc5c4Cl)ccc3O2)CC1` [Example 69, 6-(8-chloro-7-quinolyl)-N-ethoxy-spiro[chromane-2,4′-piperidine]-1′-carboxamide], with 0.001 to 0.099 µM; and `CONC(=O)N1CCC2(CCc3cc(-c4ccc5cccnc5c4Cl)ccc3O2)CC1` [Example 70, 6-(8-chloro-7-quinolyl)-N-methoxy-spiro[chromane-2,4′-piperidine]-1′-carboxamide], with 0.001 to 0.099 µM; and `CCOC(=O)N1CCC2(CCc3cc(-c4ccc5cccnc5c4Cl)ccc3O2)CC1` [Example 71, Ethyl 6-(8-chloro-7-quinolyl)spiro[chromane-2,4′-piperidine]-1′-carboxylate], with 1 to 10 µM. With `NC(=O)N1CCC2(CCc3cc(-c4cnc5ccccc5c4)ccc3O2)CC1` [Example 72, 6-(3-Quinolyl)spiro[chromane-2,4′-piperidine]-1′-carboxamide], the IC50 was 0.1 to 0.999 µM. Same read-out and setting: as for `NC(=O)N1CCC2(CCc3cc(-c4ccc5occc5c4)ccc3O2)CC1` [Example 73, 6-(Benzofuran-5-yl)spiro[chromane-2,4′-piperidine]-1′-carboxamide], the figure is 1 to 10 µM; as for `NC(=O)N1CCC2(CCc3cc(-c4ccc5ncsc5c4)ccc3O2)CC1` [Example 74, 6-(1,3-benzothiazol-6-yl)spiro[chromane-2,4′-piperidine]-1′-carboxamide], 1 to 10 µM; as for `Cn1ccc2cc(-c3ccc4c(c3)CCC3(CCN(C(N)=O)CC3)O4)ccc21` [Example 75, 6-(1-Methylindol-5-yl)spiro[chromane-2,4′-piperidine]-1′-carboxamide], 0.1 to 0.999 µM.

As for `NC(=O)N1CCC2(CCc3cc(-c4ccc5[nH]ccc5c4)ccc3O2)CC1` [Example 76, 6-(1H-Indol-5-yl)spiro[chromane-2,4′-piperidine]-1′-carboxamide], the IC50 was in the range of 0.1 to 0.999 µM.

Broadly, the IC50 is the concentration that inhibits the measured activity by half.
